In brackets after ≈: the same amount, converted by molar mass.
What was measured:
HIV-1 (IIIB) = assay: microbe, parasite or virus in culture; assay type: cell-based; conditions: Human immunodeficiency virus 1, MT4, 120 h; HIV-1 (IIIB) replication in MT-4 cells, 5 days, Cell Titer Glo; read-out: MT4 EC50
in vitro = conditions: human, uninfected MT-4 cells
physchem = conditions: FaSSIF, 23 °C, thermodynamic from solid

SMILES | EC50 (HIV-1 (IIIB)) [µM] | CC50 at 5 days (in vitro) [µM] | solubility thermodynamic at 24 h (physchem) [µg/mL]
CC1=NO[C@@]2(CC[C@H](C)N3C[C@H]2n2cc(C(=O)NCc4ccc(F)cc4F)c(=O)c(OC(=O)OCC(C)(C)COP(=O)(O)O)c2C3=O)C1 [Compound 13, (3′S,5S,7′R)-10′-((2,4-difluorobenzyl)carbamoyl)-3,3′-dimethyl-1′,11′-dioxo-1′,4′,5′,11′-tetrahydro-3′H,4H,7′H-spiro[isoxazole-5,6′-[2,7]methanopyrido[1,2-a][1,4]diazonin]-12′-yl (2,2-dimethyl-3-(phosphonooxy)propyl) carbonate] | 0.00198 | 14 | 4380 (≈ 6.29 mM)
CC1=NO[C@@]2(CC[C@H](C)N3C[C@H]2n2cc(C(=O)NCc4ccc(F)cc4F)c(=O)c(OCOC(=O)OC[C@H](C)OP(=O)(O)O)c2C3=O)C1 [Compound 17, (((3′S,5S,7′R)-10′-((2,4-difluorobenzyl)carbamoyl)-3,3′-dimethyl-1′,11′-dioxo-1′,4′,5′,11′-tetrahydro-3′H,4H,7′H-spiro[isoxazole-5,6′-[2,7]methanopyrido[1,2-a][1,4]diazonin]-12′-yl)oxy)methyl ((S)-2-(phosphonooxy)propyl) carbonate] | 0.00205 | 13.7 | 4590 (≈ 6.57 mM)
CC1=NO[C@@]2(CC[C@H](C)N3C[C@H]2n2cc(C(=O)NCc4ccc(F)cc4F)c(=O)c(OCOC(=O)O[C@@H](C)COP(=O)(O)O)c2C3=O)C1 [Compound 19, (((3′S,5S,7′R)-10′-((2,4-difluorobenzyl)carbamoyl)-3,3′-dimethyl-1′,11′-dioxo-1′,4′,5′,11′-tetrahydro-3′H,4H,7′H-spiro[isoxazole-5,6′-[2,7]methanopyrido[1,2-a][1,4]diazonin]-12′-yl)oxy)methyl ((S)-1-(phosphonooxy)propan-2-yl) carbonate] | 0.00235 | 12.2 | 5060 (≈ 7.24 mM)
CC1=NO[C@@]2(CC[C@H](C)N3C[C@H]2n2cc(C(=O)NCc4ccc(F)cc4F)c(=O)c(OCOC(=O)N(C)CCN(CC(=O)O)C(=O)OCOP(=O)(O)O)c2C3=O)C1 [Compound 21, N-(2-((((((3′S,5S,7′R)-10′-((2,4-difluorobenzyl)carbamoyl)-3,3′-dimethyl-1′,11′-dioxo-1′,4′,5′,11′-tetrahydro-3′H,4H,7′H-spiro[isoxazole-5,6′-[2,7]methanopyrido[1,2-a][1,4]diazonin]-12′-yl)oxy)methoxy)carbonyl)(methyl)amino)ethyl)-N-(((phosphonooxy)methoxy)carbonyl)glycine] | 0.0015 | 15.2 | 5040 (≈ 6.08 mM)
CC1=NO[C@@]2(CC[C@H](C)N3C[C@H]2n2cc(C(=O)NCc4ccc(F)cc4F)c(=O)c(OCOC(=O)OC[C@@H](C)OP(=O)(O)O)c2C3=O)C1 [Compound 22, (((3′S,5S,7′R)-10′-((2,4-difluorobenzyl)carbamoyl)-3,3′-dimethyl-1′,11′-dioxo-1′,4′,5′,11′-tetrahydro-3′H,4H,7′H-spiro[isoxazole-5,6′-[2,7]methanopyrido[1,2-a][1,4]diazonin]-12′-yl)oxy)methyl ((R)-2-(phosphonooxy)propyl) carbonate] | 0.00193 | 9.78 | 4180 (≈ 5.99 mM)
COC1=NO[C@@]2(CC[C@H](C)N3C[C@H]2n2cc(C(=O)NCc4ccc(F)cc4F)c(=O)c(OCOC(=O)OC[C@H](C)OP(=O)(O)O)c2C3=O)C1 [Compound 23, (((3′S,5S,7′R)-10′-((2,4-difluorobenzyl)carbamoyl)-3-methoxy-3′-methyl-1′,11′-dioxo-1′,4′,5′,11′-tetrahydro-3′H,4H,7′H-spiro[isoxazole-5,6′-[2,7]methanopyrido[1,2-a][1,4]diazonin]-12′-yl)oxy)methyl ((S)-2-(phosphonooxy)propyl) carbonate] | 0.00233 | 14.8 | 4400 (≈ 6.16 mM)
COC1=NO[C@@]2(CC[C@H](C)N3C[C@H]2n2cc(C(=O)NCc4ccc(F)cc4F)c(=O)c(OCOC(=O)O[C@@H](C)COP(=O)(O)O)c2C3=O)C1 [Compound 24, (((3′S,5S,7′R)-10′-((2,4-difluorobenzyl)carbamoyl)-3-methoxy-3′-methyl-1′,11′-dioxo-1′,4′,5′,11′-tetrahydro-3′H,4H,7′H-spiro[isoxazole-5,6′-[2,7]methanopyrido[1,2-a][1,4]diazonin]-12′-yl)oxy)methyl ((S)-1-(phosphonooxy)propan-2-yl) carbonate] | 0.00229 | 17.1 | 5000 (≈ 7 mM)
CC[C@H](COP(=O)(O)O)OC(=O)OCOc1c2n(cc(C(=O)NCc3ccc(F)cc3F)c1=O)[C@@H]1CN(C2=O)[C@@H](C)CC[C@]12CC(C)=NO2 [Compound 25, (((3′S,5S,7′R)-10′-((2,4-difluorobenzyl)carbamoyl)-3,3′-dimethyl-1′,11′-dioxo-1′,4′,5′,11′-tetrahydro-3′H,4H,7′H-spiro[isoxazole-5,6′-[2,7]methanopyrido[1,2-a][1,4]diazonin]-12′-yl)oxy)methyl ((R)-1-(phosphonooxy)butan-2-yl) carbonate] | 0.00221 | 13.9 | 5130 (≈ 7.2 mM)
CC[C@@H](COP(=O)(O)O)OC(=O)OCOc1c2n(cc(C(=O)NCc3ccc(F)cc3F)c1=O)[C@@H]1CN(C2=O)[C@@H](C)CC[C@]12CC(C)=NO2 [Compound 26, (((3′S,5S,7′R)-10′-((2,4-difluorobenzyl)carbamoyl)-3,3′-dimethyl-1′,11′-dioxo-1′,4′,5′,11′-tetrahydro-3′H,4H,7′H-spiro[isoxazole-5,6′-[2,7]methanopyrido[1,2-a][1,4]diazonin]-12′-yl)oxy)methyl ((S)-1-(phosphonooxy)butan-2-yl) carbonate] | 0.00271 | 13.5 | 4760 (≈ 6.69 mM)
CC1=NO[C@@]2(CC[C@H](C)N3C[C@H]2n2cc(C(=O)NCc4ccc(F)cc4F)c(=O)c(OCOC(=O)O[C@H](C)[C@@H](C)OP(=O)(O)O)c2C3=O)C1 [Compound 27, (((3′S,5S,7′R)-10′-((2,4-difluorobenzyl)carbamoyl)-3,3′-dimethyl-1′,11′-dioxo-1′,4′,5′,11′-tetrahydro-3′H,4H,7′H-spiro[isoxazole-5,6′-[2,7]methanopyrido[1,2-a][1,4]diazonin]-12′-yl)oxy)methyl ((2R,3R)-3-(phosphonooxy)butan-2-yl) carbonate] | 0.00247 | 18.7 | 4660 (≈ 6.55 mM)
CC1=NO[C@@]2(CC[C@H](C)N3C[C@H]2n2cc(C(=O)NCc4ccc(F)cc4F)c(=O)c(OCOC(=O)O[C@@H](C)[C@H](C)OP(=O)(O)O)c2C3=O)C1 [Compound 28, (((3′S,5S,7′R)-10′-((2,4-difluorobenzyl)carbamoyl)-3,3′-dimethyl-1′,11′-dioxo-1′,4′,5′,11′-tetrahydro-3′H,4H,7′H-spiro[isoxazole-5,6′-[2,7]methanopyrido[1,2-a][1,4]diazonin]-12′-yl)oxy)methyl ((2S,3S)-3-(phosphonooxy)butan-2-yl) carbonate] | 0.00485 | 28.9 | 4400 (≈ 6.18 mM)
COC1=NO[C@@]2(CC[C@H](C)N3C[C@H]2n2cc(C(=O)NCc4ccc(F)cc4F)c(=O)c(OCOC(=O)O[C@@H](C)[C@H](C)OP(=O)(O)O)c2C3=O)C1 [Compound 29, (((3′S,5S,7′R)-10′-((2,4-difluorobenzyl)carbamoyl)-3-methoxy-3′-methyl-1′,11′-dioxo-1′,4′,5′,11′-tetrahydro-3′H,4H,7′H-spiro[isoxazole-5,6′-[2,7]methanopyrido[1,2-a][1,4]diazonin]-12′-yl)oxy)methyl ((2S,3S)-3-(phosphonooxy)butan-2-yl) carbonate] | 0.00487 | 29 | 4880 (≈ 6.7 mM)
CC1=NO[C@@]2(CC[C@H](C)N3C[C@H]2n2cc(C(=O)NCc4ccc(F)cc4F)c(=O)c(OCOC(=O)O[C@H](C)C[C@@H](C)OP(=O)(O)O)c2C3=O)C1 [Compound 31, (((3′S,5S,7′R)-10′-((2,4-difluorobenzyl)carbamoyl)-3,3′-dimethyl-1′,11′-dioxo-1′,4′,5′,11′-tetrahydro-3′H,4H,7′H-spiro[isoxazole-5,6′-[2,7]methanopyrido[1,2-a][1,4]diazonin]-12′-yl)oxy)methyl ((2R,4R)-4-(phosphonooxy)pentan-2-yl) carbonate] | 0.0035 | 12.9 | 4620 (≈ 6.37 mM)
COC1=NO[C@@]2(CC[C@H](C)N3C[C@H]2n2cc(C(=O)NCc4ccc(F)cc4F)c(=O)c(OCOC(=O)OCC(C)(C)COP(=O)(O)O)c2C3=O)C1 [Compound 32, (((3′S,5S,7′R)-10′-((2,4-difluorobenzyl)carbamoyl)-3-methoxy-3′-methyl-1′,11′-dioxo-1′,4′,5′,11′-tetrahydro-3′H,4H,7′H-spiro[isoxazole-5,6′-[2,7]methanopyrido[1,2-a][1,4]diazonin]-12′-yl)oxy)methyl (2,2-dimethyl-3-(phosphonooxy)propyl) carbonate] | 0.00292 | 17.7 | 4800 (≈ 6.47 mM)
CC1=NO[C@@]2(CC[C@H](C)N3C[C@H]2n2cc(C(=O)NCc4ccc(F)cc4F)c(=O)c(OCOC(=O)OCC4(COP(=O)(O)O)CC4)c2C3=O)C1 [Compound 33, (((3′S,5S,7′R)-10′-((2,4-difluorobenzyl)carbamoyl)-3,3′-dimethyl-1′,11′-dioxo-1′,4′,5′,11′-tetrahydro-3′H,4H,7′H-spiro[isoxazole-5,6′-[2,7]methanopyrido[1,2-a][1,4]diazonin]-12′-yl)oxy)methyl ((1-((phosphonooxy)methyl)cyclopropyl)methyl) carbonate] | 0.00217 | 12.3 | 5680 (≈ 7.84 mM)

From patent US20250120989A1, “BRIDGED TRICYCLIC CARBAMOYLPYRIDONE COMPOUNDS AND USES THEREOF” (priority 2023, published 2025)
